Patent US9139529B2, “Substituted quinoxalines as sodium channel modulators” (VERTEX PHARMACEUTICALS INCORPORATED, priority 2013, dated 2015)

Biological target: human Nav1.8 (Homo sapiens (Human), UniProt Q9Y5Y9)
Test: E-VIPR optical membrane potential assay with electrical stimulation
Type: cell-based
Details: HEK cells expressing human Nav1.8
Source text: Assays for Detecting and Measuring NaV Inhibition Properties of Compounds E-VIPR Optical Membrane Potential Assay Method with Electrical Stimulation
Sodium channels are voltage-dependent proteins that can be activated by inducing membrane voltage changes by applying electric fields. The electrical stimulation instrument and methods of use are described in Ion Channel Assay Methods PCT/US01/21652, herein incorporated by reference and are referred to as E-VIPR. The instrument comprises a microtiter plate handler, an optical system for exciting the coumarin dye while simultaneously recording the coumarin and oxonol emissions, a waveform generator, a current- or voltage-controlled amplifier, and a device for inserting electrodes in well. Under integrated computer control, this instrument passes user-programmed electrical stimulus protocols to cells within the wells of the microtiter plate.
24 hours before the assay on E-VIPR, HEK cells expressing human Nav1.8 were seeded in 384-well poly-lysine coated plates at 15,000-20,000 cells per well. HEK cells were grown in media (exact composition is specific to each cell type and NaV subtype) supplemented with 10% FBS (Fetal Bovine Serum, qualified; GibcoBRL #16140-071) and 1% Pen-Strep (Penicillin-Streptomycin; GibcoBRL #15140-122). Cells were grown in vented cap flasks, in 90% humidity and 5% CO2.
1) Pre-spotted compounds (in neat DMSO) into compound plates. Vehicle control (neat DMSO), the positive control (20 mM DMSO stock tetracaine, 125 μM final in assay) and test compounds were added to each well at 160× desired final concentration in neat DMSO. Final compound plate volume was 80 μL (80-fold intermediate dilution from 1 μL DMSO spot; 160-fold final dilution after transfer to cell plate). Final DMSO concentration for all wells in assay was 0.625%.
2) Prepared Hexyl Dye Solution.
3) Prepared cell plates. On the day of the assay, medium was aspirated and cells were washed three times with 100 μL of Bath1 Solution, maintaining 25 μL residual volume in each well.
4) Dispensed 25 μL per well of Hexyl Dye Solution into cell plates. Incubated for 20-35 minutes at room temp or ambient conditions.
5) Dispensed 80 μL per well of Bath1 into compound plates. Acid Yellow-17 (1 mM) was added and Potassium Chloride was altered from 4.5 to 20 mM depending on the NaV subtype and assay sensitivity.
6) Washed cell plates three times with 100 μL per well of Bath1, leaving 25 μL of residual volume. Then transferred 25 uL per well from Compound Plates to Cell Plates. Incubated for 20-35 minutes at room temp/ambient condition.
7) Read Plate on E-VIPR. Used the current-controlled amplifier to deliver stimulation wave pulses for 10 seconds and a scan rate of 200 Hz. A pre-stimulus recording was performed for 0.5 seconds to obtain the un-stimulated intensities baseline. The stimulatory waveform was followed by 0.5 seconds of post-stimulation recording to examine the relaxation to the resting state.
Data was analyzed and reported as normalized ratios of emission intensities measured in the 460 nm and 580 nm channels. The response as a function of time was reported as the ratios obtained using the following formula: […]
The data was further reduced by calculating the initial (Ri) and final (Rf) ratios. These were the average ratio values during part or all of the pre-stimulation period, and during sample points during the stimulation period. The response to the stimulus R=Rf/Ri was then calculated and reported as a function of time.
Control responses were obtained by performing assays in the presence of a compound with the desired properties (positive control), such as tetracaine, and in the absence of pharmacological agents (negative control). Responses to the negative (N) and positive (P) controls were calculated as above. The compound antagonist activity A is defined as:
[formula] where R is the ratio response of the test compound

Sequence of human Nav1.8 (Q9Y5Y9 whole entry): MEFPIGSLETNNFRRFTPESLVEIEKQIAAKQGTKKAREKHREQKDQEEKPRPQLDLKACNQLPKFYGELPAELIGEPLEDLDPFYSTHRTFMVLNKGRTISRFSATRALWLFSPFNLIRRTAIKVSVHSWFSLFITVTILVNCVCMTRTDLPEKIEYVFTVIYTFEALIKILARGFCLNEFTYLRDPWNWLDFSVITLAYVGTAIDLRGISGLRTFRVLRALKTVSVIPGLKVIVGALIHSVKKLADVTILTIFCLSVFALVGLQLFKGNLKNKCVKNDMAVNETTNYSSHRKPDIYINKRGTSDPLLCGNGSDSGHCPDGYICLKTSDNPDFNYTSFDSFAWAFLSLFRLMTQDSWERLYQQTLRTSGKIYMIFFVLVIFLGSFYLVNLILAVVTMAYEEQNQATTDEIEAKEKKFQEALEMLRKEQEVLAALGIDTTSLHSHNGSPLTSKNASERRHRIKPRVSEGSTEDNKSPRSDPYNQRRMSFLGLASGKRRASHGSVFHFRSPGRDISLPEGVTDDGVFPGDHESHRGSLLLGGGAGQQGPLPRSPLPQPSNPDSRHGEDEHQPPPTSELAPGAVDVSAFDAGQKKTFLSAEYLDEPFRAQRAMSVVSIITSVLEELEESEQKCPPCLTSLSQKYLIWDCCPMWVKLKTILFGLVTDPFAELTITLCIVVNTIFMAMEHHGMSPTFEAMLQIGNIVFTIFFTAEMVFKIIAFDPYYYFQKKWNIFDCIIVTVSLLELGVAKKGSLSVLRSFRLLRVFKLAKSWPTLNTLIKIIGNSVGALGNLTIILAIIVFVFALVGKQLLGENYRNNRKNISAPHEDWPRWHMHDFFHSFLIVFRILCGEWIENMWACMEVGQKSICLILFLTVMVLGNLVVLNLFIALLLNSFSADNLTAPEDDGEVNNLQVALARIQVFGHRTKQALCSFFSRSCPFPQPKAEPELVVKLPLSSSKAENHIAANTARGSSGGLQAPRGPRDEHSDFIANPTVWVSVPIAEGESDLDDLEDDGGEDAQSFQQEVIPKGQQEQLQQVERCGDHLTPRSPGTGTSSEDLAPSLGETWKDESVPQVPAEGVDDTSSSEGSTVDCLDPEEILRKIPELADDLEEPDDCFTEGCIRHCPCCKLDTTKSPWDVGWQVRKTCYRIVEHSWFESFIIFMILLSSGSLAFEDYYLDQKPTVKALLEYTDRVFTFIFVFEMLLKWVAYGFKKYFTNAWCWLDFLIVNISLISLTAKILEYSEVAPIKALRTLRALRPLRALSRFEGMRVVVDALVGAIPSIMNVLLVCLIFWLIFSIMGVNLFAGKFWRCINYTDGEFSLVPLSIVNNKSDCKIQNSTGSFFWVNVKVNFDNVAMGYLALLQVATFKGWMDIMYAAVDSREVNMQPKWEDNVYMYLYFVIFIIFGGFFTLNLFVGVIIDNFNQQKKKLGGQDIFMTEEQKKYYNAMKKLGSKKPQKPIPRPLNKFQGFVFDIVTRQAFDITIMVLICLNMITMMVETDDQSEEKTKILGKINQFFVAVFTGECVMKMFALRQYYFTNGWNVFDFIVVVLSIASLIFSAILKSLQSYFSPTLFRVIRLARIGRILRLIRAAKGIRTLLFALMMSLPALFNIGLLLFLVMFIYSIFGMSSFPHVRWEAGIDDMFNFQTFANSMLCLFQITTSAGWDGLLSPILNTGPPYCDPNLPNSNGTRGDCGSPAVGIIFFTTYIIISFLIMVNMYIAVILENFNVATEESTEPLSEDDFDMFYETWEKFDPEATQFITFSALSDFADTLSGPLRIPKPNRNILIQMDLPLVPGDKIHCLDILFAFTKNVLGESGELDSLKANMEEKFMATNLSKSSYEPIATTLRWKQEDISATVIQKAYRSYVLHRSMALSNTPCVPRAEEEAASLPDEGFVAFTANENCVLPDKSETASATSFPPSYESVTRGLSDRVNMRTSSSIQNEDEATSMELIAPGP

NS(=O)(=O)c1cccc(NC(=O)c2cc3ccccc3nc2Oc2ccc(OC(F)(F)F)cc2)c1 [Compound 68, N-(3-sulfamoylphenyl)-2-(4-(trifluoromethoxy)phenoxy)quinoline-3-carboxamide] was tested, and the IC50 was 13 nM.
For COc1ccc(Oc2nc3ccccc3cc2C(=O)Nc2cccc(S(N)(=O)=O)c2)c(Cl)c1 [Compound 69, 2-(2-chloro-4-methoxyphenoxy)-N-(3-sulfamoylphenyl)quinoline-3-carboxamide], the IC50 was 15 nM.
In the case of COc1ccc(Oc2nc3ccccc3cc2C(=O)Nc2cccc(S(N)(=O)=O)c2)c(F)c1 [Compound 70, 2-(2-fluoro-4-methoxyphenoxy)-N-(3-sulfamoylphenyl)quinoline-3-carboxamide], the IC50 is reported as 34 nM.
In the case of Cc1cc(Cl)ccc1Oc1nc2ccccc2cc1C(=O)Nc1cccc(S(N)(=O)=O)c1 [Compound 71, 2-(4-chloro-2-methylphenoxy)-N-(3-sulfamoylphenyl)quinoline-3-carboxamide], the IC50 is reported as 14 nM.
COc1ccc(Oc2nc3ccccc3cc2C(=O)Nc2cccc(S(N)(=O)=O)c2)c(OC)c1 [Compound 72, 2-(2,4-dimethoxyphenoxy)-N-(3-sulfamoylphenyl)quinoline-3-carboxamide] showed an IC50 of 26 nM.
COc1cc(Cl)ccc1Oc1nc2ccccc2cc1C(=O)Nc1cccc(S(N)(=O)=O)c1 [Compound 73, 2-(4-chloro-2-methoxyphenoxy)-N-(3-sulfamoylphenyl)quinoline-3-carboxamide] showed an IC50 of 31 nM.
